Laboratory results from US12558342B2, “2-[2-({12,12-dimethyl-4-oxo-6-phenyl-3,11-dioxatricyclo[8.4.0.0,2,7]tetradeca-1,5,7,9-tetraen-8-yl}oxy)acetamido]benzamide and derivatives as inhibitor of clock:bmal1 interaction for the treatment of circadian rhythm diseases and disorders” (KOC UNIVERSITESI, priority 2019, dated 2026).

Key:
[1] = tested on: PER2, NPAS2, BMAL1 and CRY1; assay: Cytosol-nuclear fractionation of U2OS cells, other clock proteins; assay type: cell-based, human; conditions: 20 μM, two days
Experimental: U2 OS cells treated with 20 μM CLK8 and 0.5% DMSO were used for fractionation analysis. The 4×10^5 was suspended in 500 ul cytosolic lysis buffer (10 mM HEPES pH 7,9, 10 mM KCl, 0.1 mM EDTA, 0.05% NP40 with protease inhibitors) and incubated on ice for 10 minutes. The lysate was centrifuged for 3 minutes at 3000 rpm at 4° C. The resulting supernatant was centrifuged one more time and supernatant collected as cytosolic fraction. On the other hand, the resulting pellet from lysate centrifugation was suspended in nuclear lysis buffer (20 mM HEPES pH 7.9, 0.4 M NaCl, 1 mM EDTA, 10% glycerol with protease inhibitors) and sonicated 2 times 10 seconds with 60% power. After centrifuge at 15 000 g for 5 minutes at 4° C., supernatant was collected as nuclear fraction. Collected fractions were used for Western Blot analysis. Fractionation efficiency was checked with Western Blot by using tubulin (Sigma T9026) as cytosolic marker and Histone-H3 (abcam ab1791) as nuclear marker.

[2] = biological target: T1, BMAL1 (Mus musculus, UniProt Q9WTL8); assay: LC-MS/MS of pull-down precipitates, BMAL1; assay type: binding; conditions: Competitor 0 μM
T1 construct: expressed in transfected cells; host or cells: HEK 293T
T1 sequence (Q9WTL8 whole entry): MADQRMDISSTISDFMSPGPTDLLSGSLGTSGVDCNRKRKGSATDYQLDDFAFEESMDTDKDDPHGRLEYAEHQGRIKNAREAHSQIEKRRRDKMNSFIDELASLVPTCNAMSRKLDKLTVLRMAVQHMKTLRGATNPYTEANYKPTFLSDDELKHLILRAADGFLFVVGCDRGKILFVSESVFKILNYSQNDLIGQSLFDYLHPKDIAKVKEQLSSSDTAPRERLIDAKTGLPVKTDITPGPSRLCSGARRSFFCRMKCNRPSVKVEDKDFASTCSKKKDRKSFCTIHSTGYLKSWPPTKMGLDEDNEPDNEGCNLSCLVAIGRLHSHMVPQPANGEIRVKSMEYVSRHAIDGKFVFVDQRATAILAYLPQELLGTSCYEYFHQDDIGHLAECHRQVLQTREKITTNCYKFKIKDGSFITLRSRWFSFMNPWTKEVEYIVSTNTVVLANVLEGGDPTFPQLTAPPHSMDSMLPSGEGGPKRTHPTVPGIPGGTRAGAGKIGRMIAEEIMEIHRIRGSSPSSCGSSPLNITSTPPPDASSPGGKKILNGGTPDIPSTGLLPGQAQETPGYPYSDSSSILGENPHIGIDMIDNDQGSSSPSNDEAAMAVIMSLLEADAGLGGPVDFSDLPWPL
Experimental: HEK293T cells were transiently transfected with tag-free hsClock and mBmal1. After 48 hours of transfection, cells were harvested and whole cell lysate was prepared with ice-cold lysis buffer (50 mM Tris-HCl pH 7.4, 2 mM EDTA, 1 mM MgCl2, 0.2% NP-40, 1 mM sodium orthovanadate, 1 mM sodium fluoride and protease inhibitor cocktail) followed by centrifugation at 7000×g at 4° C. for 10 minutes. Lysate was diluted with ice-cold 2× binding buffer (100 mM Tris-HCl pH 7.4, 300 mM NaCl, 0.2% NP-40, 2 mM sodium orthovanadate, 2 mM sodium fluoride, and protease inhibitor cocktail) 27. The lysate was divided into three fractions to be treated with either DMSO, or 20 μM of bitoinylated-CLK8 (bait) with or without 200 μM CLK8 (competitor). […]
The next step was to check for off-targets of CLK8. […] Since the amount of precipitated endogenous CLOCK was insufficient to be detected in LC-MS/MS, whole cell lysate of HEK 293T cells overexpressing CLOCK and BMAL1 were used for LC-MS/MS. We determined proteins that potentially bind to CLK8 by utilizing a minimum threshold for peptide spectrum matches and coverage equal to those of the main target, CLOCK. We also excluded proteins that have been detected in negative controls of the CRAPome database (32), assuming them as abundant sticky proteins. […] BMAL1 was detected in lower amounts when a competitor was present. […]

[3] = tested on: core clock components; assay: Time dependent protein and mRNA analysis in synchronized U2OS cells; assay type: cell-based, human
Experimental: FIGS. 5A-5K are an illustration of FORMULA I altered CLOCK protein level in time dependent manner. Confluent U2OS cells were synchronized by 2-hours treatment with dexamethasone (0.1 μM) and medium replaced with fresh medium containing CLK8 or DMSO. Cells were harvested at indicated time points. FIGS. 5A-5D show a time dependent analysis of core clock proteins by Western blot. (mean±SEM, n=3). FIGS. 5E-5K show a qPCR analysis of the core clock genes in a time dependent manner. (Data represent the mean±SEM, n=3 ***: p<0.001 **: p<0.005, *: p<0.05 versus DMSO control by one-way ANOVA Tukey).
Unsynchronized Bmal1::dluc U2OS cells were seeded on 6-well dishes. Confluent cells were treated with an appropriate amount of CLK8 for 48 hours. Control cells were treated with 0.5% vehicle (DMSO). After harvesting the cells, mRNAs were isolated (RNeasy, QIAGEN) and converted to cDNA (Thermo Scientific). Finally, cDNAs were subjected to SYBR Green-based RT-qPCR assay. PRLP0 was used as an internal control. For western blot analysis RIPA buffer was used to prepare whole cell lysates. The amount of protein for each sample was normalized to the β-ACTIN amount detected by β-Actin antibody (Cell Signalling).

**Q.** Which “level of PER2, NPAS2, BMAL1 and CRY1” value [1] does the source give for CC1(C)CCc2c(cc(OCC(=O)Nc3ccccc3C(N)=O)c3c(-c4ccccc4)cc(=O)oc23)O1 [CLK8, 2-[2-({12,12-dimethyl-4-oxo-6-phenyl-3,11-dioxatricyclo [8.4.0.0,2,7]tetradeca-1,5,7,9-tetraen-8-yl}oxy)acetamido] benzamide] here?
**A.** comparable to the control samples

**Q.** And the “Peptide spectrum matches, BMAL1” value [2]?
**A.** 56

**Q.** And the “CRY1 and PER2 protein abundance” value [3]?
**A.** comparable protein abundance

**Q.** What about the “CRY1 and PER2 transcript level” value [3] of the same compound?
**A.** significantly reduced

**Q.** What about the “protein levels of CLOCK and BMAL1” value [3] of the same compound?
**A.** reduced

**Q.** And the “transcriptional level of Clock” value [3]?
**A.** increased

**Q.** What about the “oscillatory amplitude of clock gene expression” value ([3]; collected every 6 h) of the same compound?
**A.** generally lower
